Data: patent US5068222A, “Bombesin antagonists with deletion of net-residue at the C-terminus” (Imperial Chemical Industries PLC, priority 1987, dated 1991)
Where a SMILES comes first, the peptide text is derived from it. [ ]: non-standard residue; d: D form. The star is where a group is joined. Cbz = O=C(OCc1ccccc1)*

Assays:
[1] = test system: bombesin-induced stimulation of the secretion of the enzyme amylase; conditions: rat, in vivo
Description: (c) An in vivo test involving the measurement of the antagonism of the bombesin-induced stimulation of the secretion of the enzyme amylase into the pancreatic duct of the rat by a test compound administered orally, sub-cutaneously or intravenously. Bombesin and the test compound can be administered concomitantly or the test compound can be predosed at any convenient interval, for example 30, 60, 90, 120, 150 or 180 minutes, before bombesin is dosed. Amylase was measured by analysis of the conversion of starch into maltose, on incubation of the starch/amylase mixture at 30° C. for 15 minutes, using a spectrophotometric assay as originally described by P. Bernfield in `Methods in Enzymology` Vol. I, p17 (Editors Colowick and Kaplan, Academic Press, New York, 1955). Bombesin (5 micrograms/kg, intravenously) causes a large, but submaximal, increase of amylase secretion within 30 minutes.

[2] = test system: mouse Swiss 3T3 fibroblast cells; format: cell-based; conditions: 3 h
Description: (b) An in vitro assay which assesses the ability of a test compound to inhibit the Neuromedin C stimulated mitogenesis of mouse Swiss 3T3 fibroblast cells as determined by the uptake of [^3 H]-thymidine. The test is similar to those described by N. Corps., L. Rees and K. Brown, Biochem. Journal, 1985, 231, 781 and I. Zachary and E. Rozengurt, Proc. Nat. Acad. Sci. U.S.A., 1985, 82, 7616, except that GRP (18-27) (0.2 or 0.4 nM) was used to stimulate growth and the test compounds were dissolved in an assay medium containing 0.1% bovine serum albumin and 0.4% dimethylsulphoxide and […]

[3] = test system: guinea pig pancreatic acini; conditions: cited from earlier work
[4] = test system: bombesin-induced hypothermia; conditions: rat; cited from earlier work
[5] = biological target: T1, bombesin receptor of mouse Swiss 3T3 fibroblast cells (Mus musculus, UniProt P21729); assay: Test (a): in vitro binding assay, displacement of [I125]GRP; conditions: ambient temperature, 1 hour
T1 construct: the bombesin receptor of mouse Swiss 3T3 fibroblast cells; endogenous in cells; host or cells: mouse Swiss 3T3 fibroblast cells
T1 sequence (P21729 whole entry): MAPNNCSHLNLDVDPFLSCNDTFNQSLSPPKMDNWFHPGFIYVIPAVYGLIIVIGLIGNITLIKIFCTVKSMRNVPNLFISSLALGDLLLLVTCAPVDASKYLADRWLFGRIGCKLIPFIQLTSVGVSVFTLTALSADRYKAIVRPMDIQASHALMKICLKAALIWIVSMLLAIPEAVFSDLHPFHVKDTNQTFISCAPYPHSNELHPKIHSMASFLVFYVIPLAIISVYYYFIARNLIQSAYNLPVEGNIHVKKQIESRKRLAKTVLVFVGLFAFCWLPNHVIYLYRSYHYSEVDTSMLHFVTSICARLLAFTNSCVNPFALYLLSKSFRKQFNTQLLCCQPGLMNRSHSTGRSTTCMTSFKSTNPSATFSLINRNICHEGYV
Description: (a) An in vitro binding assay which assesses the ability of a test compound to displace radiolabelled gastrin releasing peptide ([I^125 ]GRP) from the bombesin receptor of mouse Swiss 3T3 fibroblast cells. The test is similar to that described by I. Zachary and E. Rozengurt, Proc. Nat. Acad. Sci. U.S.A., 1985, 82, 7616, except that the cells are incubated at ambient temperature for 1 hour;

Compound: COC(=O)[C@H](CC(C)C)NC(=O)[C@H](CCCCNC(=O)OCc1ccccc1)NC(=O)[C@@H](C)NC(=O)[C@@H](NC(=O)[C@H](C)NC(=O)[C@H](Cc1c[nH]c2ccccc12)NC(=O)[C@H](Cc1c[nH]cn1)NC(C)=O)C(C)C [Ac-His-Trp-Ala-Val-D-Ala-Lys(Z)-Leu-OMe] (Ac-HWAV[dA]K(Cbz)L-OMe)
- IC50 in test (c) [1]: 0.1 mg/kg
- IC50 [2]: 0.1 nM

Compound: [Tyr^4, D-Phe^12 ]bombesin
- bombesin-stimulated secretion of amylase [3]: inhibited

Compound: [D-Phe^12 ]bombesin
- bombesin-stimulated secretion of amylase [3]: inhibited

Compound: [D-Phe^12, Leu^14 ]bombesin
- bombesin-stimulated secretion of amylase [3]: inhibited

Compound: [D-Glp^7, D-Ala^11, Ala^14 ]bombesin (7-14)
- antagonism of bombesin-induced hypothermia [4]: partial antagonist

Compound: CNC(=O)[C@H](CC(C)C)NC(=O)[C@H](Cc1c[nH]cn1)NC(=O)[C@@H](C)NC(=O)[C@@H](NC(=O)[C@H](C)NC(=O)[C@H](Cc1c[nH]c2ccccc12)NC(=O)[C@H](Cc1c[nH]cn1)NC(C)=O)C(C)C [Ac-His-Trp-Ala-Val-D-Ala-His-Leu-NHMe] (Ac-HWAV[dA]HL-NHMe)
- IC50 [5]: 19.5 nM
- IC50 in test (c) [1]: < 2 mg/kg
- IC50 [2]: 28 nM
